Results reported in US20160031935A1, “SMALL MOLECULE MODULATORS OF PCSK9 AND METHODS OF USE THEREOF” (ADAERATA, LIMITED PARTNERSHIP, priority 2013, published 2016).

Tests used:
WT PCSK9(+V5) = target: T1, WT PCSK9(+V5) (Homo sapiens, UniProt Q8NBP7); experiment: PCSK9 secretion assay: PCSK9 in media and cells by ELISA (media/cell ratio); assay type: cell-based; conditions: 10 μM; HepG2 cells stably expressing WT PCSK9(+V5), 24 h
T1 construct: expressed in transfected cells
Description: In 12-well plates (Greiner BioOne™), HepG2 cells stably expressing PCSK9(+V5) were seeded at a density of 1×10^6/well in complete media and incubated for 20 hours, at 37° C. Cells were rinsed once with 2 ml/well of D-PBS (+Calcium, +Magnesium) (Wisent) followed by addition of 0.5 ml/well incubation media (+0.07% BSA) containing the inhibitory compounds at various concentrations (11, 33, 100 μM) or DMSO control (0.4% final) and overnight (24 hours) incubation. 24 hours-conditioned media was collected, centrifuged at 130×g for 5 minutes to remove cell debris, and the supernatant removed for PCSK9 quantification by ELISA (100 μl of 1:30 dilution). Cells were washed once with ice-cold D-PBS (+Calcium, +Magnesium) (Wisent), then lysed with 250 ul/well of radioimmunoprecipitation assay buffer (RIPA) (50 mM Tris-HCl, pH 7.8, 150 mM NaCl, 1% Nonident P-40, 0.5% sodium deoxycholate, 0.1% SDS) containing a mixture of protease inhibitors (Roche Applied Science) for 30 min on ice, and pelleted at 11,300×g for 5 minutes. Supernatant was removed for cellular PCSK9 quantification by ELISA (100 μl of 1:20 dilution) and total protein determination by the Bio-Rad™ DC Protein assay (Bio-Rad) (4 μl cell lysate in duplicate) (Dubuc G, Tremblay M, Pare G, Jacques H, Hamelin J, Benjannet S, Boulet L, Genest J, Bernier L, Seidah N G, Davignon J. 2010. A new method for measurement of total plasma PCSK9: clinical applications. J Lipid Res. 51:140-149). The ratio of PCSK9 concentration of media (M) over cells (C) was determined and compounds which decreased M/C by >30% were considered active.
HepG2 cells stably expressing WT PCSK9(+V5) were incubated overnight (24 hours) in the absence (DMSO) or presence of 10 μM, 100 μM or increasing concentrations (11, 33, 100 μM) of a tested compound. 24 hours-conditioned media was collected, centrifuged, and the supernatant removed for PCSK9 quantification by ELISA (100 μl of 1:30 dilution). Cells were lysed with 250 ul/well of radioimmunoprecipitation assay buffer (RIPA) (50 mM Tris-HCl, pH 7.8, 150 mM NaCl, 1% Nonident P-40, 0.5% sodium deoxycholate, 0.1% SDS) containing a mixture of protease inhibitors (Roche Applied Science), and pelleted at 11,300×g for 5 minutes. Supernatant was removed for cellular PCSK9 quantification by ELISA (100 μl of 1:20 dilution) and total protein determination by the Bio-Rad DC Protein assay (Bio-Rad) (Dubuc G, Tremblay M, Pare G, Jacques H, Hamelin J, Benjannet S, Boulet L, Genest J, Bernier L, Seidah N G, Davignon J. 2010. A new method for measurement of total plasma PCSK9: clinical applications. J Lipid Res. 51:140-149). Over 165 compounds were subjected to a first screen at 100 μM by PCSK9 secretion assay.

[1] = system: cell surface LDLR activity; experiment: Dil-LDL uptake assay in HepG2 naïve cells; assay type: cell-based, human; conditions: for activity at 10 µM: Homo sapiens, 24 h, HepG2 cells, read-out: Dil-LDL uptake (% DMSO Cnt)
Description: HepG2 naive cells and HEK293 naive cells were plated in 96-well plates (CellBind black plate with clear bottom (Corning; Cat #3340)) at a density of 25,000 cells/well, in complete media (DMEM high glucose (+sodium pyruvate for HepG2) (Wisent)+10% FBS). After 20 hours, cells were washed for 30 min with serum free DMEM media (100 μl/well), the wash media was removed and replaced with 100 μl/well of incubation media (DMEM high glucose (+sodium pyruvate for HepG2) (Wisent)+0.07% BSA (Sigma-Aldrich)) containing compound at various concentrations ([…]) or DMSO control (0.4% final). Each condition was prepared in triplicates. After 6 hours incubation at 37° C., Dil-LDL (Biomedical Technologies (Cat #BT-904)) was added to the cell media (5 μl) at 5 μg/ml final concentration, and cells returned to tissue culture incubator for another 18 hours (a total of 24 hours incubation with the compounds). After 2 washes (200 μl/well) with ice-cold D-PBS (Wisent) and aspiration of the final wash, plates were scanned (bottom read) on a SpectraMax GeminiEM™ plate reader (Molecular Devices). For each well, raw Dil-LDL uptake was measured as the average fluorescence intensity (RFU) (ex: 520 nm/em: 575 nm, cutoff: 550 nm) of 9 readings in 3 different points in the well. Dil-LDL uptake in each well was corrected for total number of cells by performing a CyQuant™ cell assay (Invitrogen; Cat #C7026). Namely, after recording the Dil fluorescence, the plate was frozen overnight at −80° C. The next day, the plates were thawed at room temperature, the cells lysed according to the manufacturer's protocol, and the number of cells/well was determined by measuring the fluorescence (RFU) of the CyQuant green fluorescent dye bound to the cellular nucleic acids (ex: 485 nm/em: 538 nm, cutoff: 515 nm). For each condition, Dil-RFU was divided by CyQuant-RFU. Corrected dil-LDL uptake is reported as % DMSO control and was obtained from triplicate wells.
The PCSK9 inhibitory compounds were also characterized using a Dil-LDL fluorescent uptake assay as described in Poirier et al., J. Biol. Chem. 284: 28856-28864, 2009. The method entails the fluorescence measurement of the Dil-LDL cellular incorporation via LDLR internalization (a measurement of cell surface LDLR activity) in human hepatocyte derived HuH7 or HepG2 cell lines, or human embryonic HEK293 cells, in the presence or absence of compounds.
HepG2 naïve cells and HEK293 naïve cells were plated in 96-well plates (CellBind™ black plate with clear bottom (Corning; Cat #3340)). At 20 h post-seeding, cells were incubated in the absence (DMSO or negative control) or in the presence of different concentrations of compounds. Each condition was prepared in triplicates. After 6 hours incubation, Dil-LDL (Biomedical Technologies (Cat #BT-904)) was added to the cell media, and cells returned to tissue culture incubator for another 18 hours. Plates were scanned (bottom read) on a SpectraMax GeminiEM™ plate reader (Molecular Devices). For each well, raw Dil-LDL uptake was measured as the average fluorescence intensity (RFU) (ex: 520 nm/em: 575 nm, cutoff: 550 nm) of 9 readings in 3 different points in the well. Dil-LDL uptake in each well was corrected for total number of cells by performing a CyQuant™ cell assay (Invitrogen, Cat #C7026) according to the manufacturer's instructions. Corrected Dil-LDL uptake is reported as a % of DMSO control and was obtained from triplicate wells.

T1 sequence (Q8NBP7 153-692): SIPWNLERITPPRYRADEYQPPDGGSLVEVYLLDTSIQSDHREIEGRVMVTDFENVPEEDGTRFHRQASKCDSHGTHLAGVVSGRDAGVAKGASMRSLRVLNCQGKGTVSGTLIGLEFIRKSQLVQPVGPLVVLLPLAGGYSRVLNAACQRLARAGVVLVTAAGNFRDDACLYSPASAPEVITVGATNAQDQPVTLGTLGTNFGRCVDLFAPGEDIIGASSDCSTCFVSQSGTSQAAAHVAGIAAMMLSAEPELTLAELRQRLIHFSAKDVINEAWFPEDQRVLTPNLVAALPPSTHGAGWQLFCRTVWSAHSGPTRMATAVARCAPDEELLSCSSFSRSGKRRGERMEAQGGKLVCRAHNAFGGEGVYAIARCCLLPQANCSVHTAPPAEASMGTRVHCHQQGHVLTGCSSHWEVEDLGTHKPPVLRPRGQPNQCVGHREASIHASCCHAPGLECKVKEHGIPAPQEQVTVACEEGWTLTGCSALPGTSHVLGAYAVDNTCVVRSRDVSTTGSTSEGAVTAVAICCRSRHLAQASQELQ

| Secretion Inhibition (% Activity) (WT PCSK9(+V5)) [%] | SMILES | activity at 10 µM [1] [%] | Dil-LDL uptake (FIG. 5A, in words) ([1]; 33.3 μM, HepG2 naïve cells) |
| --- | --- | --- | --- |
| 92 | CC(C)[C@H](NC(=O)c1ccc(-c2ccccc2)cc1)C(=O)N[C@@H](Cc1ccccc1)C(=O)NC1(C(=O)N[C@@H](CCC(N)=O)C(O)C(F)(F)F)CCC1 (single isomer, unassigned) [Example 66] | 237 ± 59 | – |
| 79 | CC(C)[C@H](NC(=O)c1ccc(-c2ccc(F)cc2)cc1)C(=O)N[C@@H](Cc1ccccc1)C(=O)N[C@@H](C)C(=O)NC(CCC(N)=O)C(O)C(F)(F)F (stereo partly drawn) [Example 52, N-((2S)-1-(((2S)-1-(((2S)-1-((6-Amino-1,1,1-trifluoro-2-hydroxy-6-oxohexan-3-yl)amino)-1-oxopropan-2-yl)amino)-1-oxo-3-phenylpropan-2-yl)amino)-3-methyl-1-oxobutan-2-yl)-4′-fluoro-[1,1′-biphenyl]-4-carboxamide] | 254 ± 71 | – |
| 82 | CCCCCCCCCC(=O)N[C@H](C(=O)N[C@@H](Cc1ccccc1)C(=O)N[C@@H](Cc1ccccc1)C(=O)NC(CCC(N)=O)C(O)C(F)(F)F)C(C)C (stereo partly drawn) [Example 59, N-((2S)-1-(((2S)-1-(((2S)-1-((6-Amino-1,1,1-trifluoro-2-hydroxy-6-oxohexan-3-yl)amino)-1-oxo-3-phenylpropan-2-yl)amino)-1-oxo-3-phenylpropan-2-yl)amino)-3-methyl-1-oxobutan-2-yl)decanamide] | 253 ± 75 | – |
| 88 | CC(C)[C@H](NC(=O)c1ccc(-c2ccccc2)cc1)C(=O)N[C@@H](Cc1ccccc1)C(=O)N[C@@H](C)C(=O)NC(CCC(N)=O)C(O)C(F)(F)F (stereo partly drawn) [Example 24, N-((2S)-1-(((2S)-1-(((2S)-1-((6-Amino-1,1,1-trifluoro-2-hydroxy-6-oxohexan-3-yl)amino)-1-oxopropan-2-yl)amino)-1-oxo-3-phenylpropan-2-yl)amino)-3-methyl-1-oxobutan-2-yl)-[1,1′-biphenyl]-4-carboxamide] | 224 ± 33 | increase in the Dil-LDL uptake |
| 74 | CC(C)[C@H](NC(=O)c1ccc(-c2ccccc2)cc1)C(=O)N[C@H](Cc1ccccc1)C(=O)N[C@@H](C)C(=O)NC(CCC(N)=O)C(O)C(F)(F)F (stereo partly drawn) [Example 70, N-((2S)-1-(((2R)-1-(((2S)-1-((6-Amino-1,1,1-trifluoro-2-hydroxy-6-oxohexan-3-yl)amino)-1-oxopropan-2-yl)amino)-1-oxo-3-phenylpropan-2-yl)amino)-3-methyl-1-oxobutan-2-yl)-[1,1′-biphenyl]-4-carboxamide] | 224 ± 47 | – |
| 83 | CC(C)[C@H](NC(=O)c1ccc(C2(C(F)(F)F)N=N2)cc1)C(=O)N[C@@H](Cc1ccccc1)C(=O)N[C@@H](C)C(=O)NC(CCC(N)=O)C(O)C(F)(F)F (stereo partly drawn) [Example 29, N-((2S)-1-(((2S)-1-(((2S)-1-((6-Amino-1,1,1-trifluoro-2-hydroxy-6-oxohexan-3-yl)amino)-1-oxopropan-2-yl)amino)-1-oxo-3-phenylpropan-2-yl)amino)-3-methyl-1-oxobutan-2-yl)-4-(3-(trifluoromethyl)-3H-diazirin-3-yl)benzamide] | 207 ± 21 | – |
| 100 | CSCC[C@H](NC(=O)c1ccc(-c2ccccc2)cc1)C(=O)N[C@@H](Cc1ccccc1)C(=O)N[C@@H](C)C(=O)NC(CCC(N)=O)C(O)C(F)(F)F (stereo partly drawn) [Example 75, N-((5S,8S,11S)-17-amino-8-benzyl-11-methyl-6,9,12,17-tetraoxo-14-(2,2,2-trifluoro-1-hydroxyethyl)-2-thia-7,10,13-triazaheptadecan-5-yl)-[1,1′-biphenyl]-4-carboxamide] | 172 ± 48 | – |
| 73 | CCCCCCCCCC(=O)N[C@H](C(=O)N[C@@H](Cc1ccccc1)C(=O)N[C@H](C)C(=O)N[C@@H](CCC(N)=O)C(O)C(F)(F)F)C(C)C (single isomer, unassigned) [Example 60] | 224 ± 43 | – |
| 81 | CCCCCCCCCC(=O)N[C@H](C(=O)N[C@@H](Cc1ccccc1)C(=O)N[C@H](C(=O)NC(CCC(N)=O)C(O)C(F)(F)F)C(C)C)C(C)C (stereo partly drawn) [Example 58, N-((2S)-1-(((2S)-1-(((2S)-1-((6-amino-1,1,1-trifluoro-2-hydroxy-6-oxohexan-3-yl)amino)-3-methyl-1-oxobutan-2-yl)amino)-1-oxo-3-phenylpropan-2-yl)amino)-3-methyl-1-oxobutan-2-yl)decanamide] | 261 ± 48 | – |
